The data set in a line: in vitro. To be noted: human, Caco-2, pH 7.4.

Method: Caco-2 cells were seeded on a 24-well plate, cultured at 37° C. for 21 to 23 days in a CO2 incubator, and then a Caco-2 cell monolayer membrane permeability test was conducted. After checking the membrane resistance value of the cell layer after the culture, the culture medium in the plate was replaced with HBSS (pH 7.4). […] For the control compounds, [^3H]propranolol as a high membrane permeability control and [^14C]mannitol as a low membrane permeability control were used.

As a reminder, the Papp A→B is the apparent permeability from the apical to the basolateral side of a cell layer. High values mean fast passage, low ones slow passage. Compound `CC(C)NCC(O)COc1cccc2ccccc12` (centres unmarked) [[^3H]Propranolol, [^3H]propranolol] returned a Papp A→B at 2 h, 10 μmol/L of 28.9 ± 1.1 ×10⁻⁶ cm/s.

In the case of `OC[C@@H](O)[C@@H](O)[C@H](O)[C@H](O)CO` [[^14C]Mannitol, [^14C]mannitol], the Papp A→B at 2 h, 10 μmol/L stood at 0.53 ± 0.007 ×10⁻⁶ cm/s.
